Measured values from US11957656B2, “Methods of treating Prader-Willi syndrome” (The Trustees of Columbia University in the City of New York, priority 2016, dated 2024).
Like-named read-outs stand apart in the source and are kept apart here.

Tests used:
PCSK1 transcript = PCSK1 transcript levels in iPSC-derived neurons; assay type: cell-based, human
Experimental: FIGS. 6A-F are graphs showing that application of phosphodiesterase inhibitors to iPSC-derived neurons increases PCSK1 transcript levels and prohormone processing. […] FIGS. 6B-C: Roflumilast increases PCSK1 transcript levels in iPSC-derived neurons at Day 40 of differentiation (1043D3 line) at […] concentration. […] FIG. 6F: MK0952 applied at 10 μM in combination with 1 μM Forskolin increases PCSK1 transcript levels ˜2-fold in iPSC-derived neurons (1043D3 line).
Forskolin was applied to various cellular models and the results illustrate that it robustly and reliably increases PCSK1 transcript levels, PC1 protein levels, and functionally increases prohormone processing. PCSK1/Pcsk1 transcript levels increased between 2-3 fold in iPSC-derived neurons and primary mouse neurons exposed to 10 μM Forskolin (FIGS. 5A, C, D).
(§1) Cyclic AMP concentrations increased about 8.5-fold in iPSC-derived hypothalamic ARC neurons exposed to 10 μM Forskolin, supporting the inference that application of Forskolin increases PCSK1 transcript levels by raising cellular cAMP levels which in turn activate PCSK1's cAMP-response element promoter. FIG. 5A is a graph showing primary forebrain neurons were isolated from gestational day 19.5 (E19.5) embryos of wild type mice and cultured for 72 hours. Subsequently, cells were exposed to either 10 μM Forskolin or its vehicle, dimethyl sulfoxide (DMSO) for 20 hours. Pcsk1 transcript increased ˜2.5-fold in primary neurons exposed to Forskolin. FIG. 5B is a graph showing unaffected control hypothalamic arcuate-like (ARC) neurons (Hes Nkx2-1 hESC line) at day 37 (D37) of differentiation were treated with 10 μM Forskolin or vehicle for thirty minutes. Cyclic adenosine monophosphate (cAMP) levels were increased about 8.5-fold in cells exposed to Forskolin. […] Four hours of exposure yielded the maximal increase in upregulation, about 2.5-fold, of the time points tested.
However, the effect size of PDE inhibition on PCSK1 transcript levels is less than that induced by AC agonism with forskolin. […] Again, increased PCSK1 transcription due to combination treatment with Forskolin and Roflumilast also increases prohormone processing of POMC to ACTH (FIG. 6E).

cAMP = cAMP levels in hypothalamic arcuate-like (ARC) neurons (Hes Nkx2-1 hESC line); assay type: cell-based, human; conditions: 10 μM Forskolin, thirty minutes, day 37 of differentiation
Experimental: as §1, with “2.5-fold” for “˜2.5-fold”, “([…])” for “(D37)”

PC1 = PC1 protein levels in isolated islets from WT mice; assay type: cell-based, mouse; conditions: isolated islets from wild type mice, 25 μM and 50 μM Forskolin
[1] = cited from earlier work
[2] = Ratio of circulating proinsulin:insulin in wild type mice; assay type: in vivo, mouse; conditions: single administration, ~4 hour fasted wild type mice
Experimental: The first in vivo study with MK0952 administered by oral gavage while forskolin was administered intraperitoneally one time to ˜4 hour fasted wild type mice was completed. […] This difference likely reflects greater CNS penetrance of the MK0952, not the general relevance of a cyclase activator to therapy of PWS. No change in the ratio of circulating proinsulin:insulin was detected following administration MK0952 or Forskolin. Because the processing of proinsulin to insulin is already quite efficient in WT animals, it is in hindsight unlikely that it would further increase at fasting. However, these ‘baseline’ data are still valuable for assessing proinsulin to insulin processing under the setting of an intraperitoneal glucose tolerance test at […] glucose in both WT and Snord116^p−/m+ mice. Additionally, samples were collected for measurement of circulating cAMP levels, cortical proBDNF/BDNF, cerebellar Pcsk1, gastric Pcsk1, and gastric proghrelin/ghrelin, and finally pulmonary Pcsk1 transcript and cAMP levels.

PDE4 [3] = conditions: read-out: IC50 (intrinsic potency, PDE4 inhibitor); cited from earlier work
whole blood = conditions: cited from earlier work
PDE4 [4] = conditions: cited from earlier work
[5] = cited from earlier work; remark: listed apart in the source
[6] = system: adenylate cyclase (AC) isoforms; conditions: cited from earlier work

Which results are given for `C=C[C@@]1(C)CC(=O)[C@]2(O)[C@@]3(C)[C@@H](O)CCC(C)(C)[C@@H]3[C@H](O)[C@H](OC(C)=O)[C@@]2(C)O1` [Forskolin]?
maximal increase in PCSK1 upregulation (PCSK1 transcript; iPSC-derived neurons (line 1043D3), 10 μM Forskolin, four hours): about 2.5 fold; PCSK1 transcript levels increase (PCSK1 transcript; iPSC-derived neurons exposed to 10 μM Forskolin): 2-3 fold; cAMP levels increase (cAMP): about 8.5 fold; PC1 protein levels increase (PC1): ~3 fold; Brain penetration ([1]; adenylate cyclase activators, Table 2): Yes

What does the source list for `O=C(NC1CC1)c1cn(-c2cccc(-c3ccc([C@@H]4C[C@H]4C(=O)O)c(F)c3)c2)c2ncccc2c1=O` [MK0952]?
PCSK1 transcription, MK0952 as single agent in vitro (PCSK1 transcript; iPSC-derived neurons): only been found to increase PCSK1 transcription in combination with Forskolin; ratio of circulating proinsulin:insulin [2]: No change; IC50 (PDE4 [3]): 0.6 nM; IC50 (whole blood): 555 nM; PDE4 selectivity (PDE4 [4]): selective; Brain penetration ([1]; PDE4 inhibitors, Table 1A): brain-penetrant and yes

With `Cn1c(=O)c2[nH]cnc2n(C)c1=O` [Theophylline] as the compound, how does the “PCSK1 transcript levels, single agent” value (PCSK1 transcript; D34 iPSC-derived hypothalamic ARC neurons (1023A line), 10 mM) read?
Its value is “increases”.

With `CC(=O)N[C@@H](C)c1cc(Cl)ccc1C1CCN(C(=O)[C@@H]2CN(C(C)(C)C)C[C@H]2c2ccc(F)cc2F)CC1` [MK-0493] as the compound, how does the “efficacy for weight loss in non-genetic obese” value [5] read?
The value was “animal models but limited”.

With `C=C[C@@]1(C)CC(=O)[C@]2(O)[C@@]3(C)[C@@H](O)CCC(C)(C)[C@@H]3[C@H](OC(=O)CCN(C)C)[C@H](OC(C)=O)[C@@]2(C)O1.Cl` [FD5] as the compound, how does the AC isoforms activated [6] read?
Its AC isoforms activated is “AC5 (AC5 expressed in heart,”.

With `CCn1ncc2c(NC3CCOCC3)c(-c3nnc(Cc4sc(C)nc4C)o3)cnc21` [GSK356278] as the compound, how does the PDE4 selectivity (PDE4 [4]) read?
The PDE4 selectivity was “Selective”.

And the Brain penetration ([1]; PDE4 inhibitors, Table 1A)?
The Brain penetration was “Good”.

With `CC(C)Cn1c(=O)n(C)c(=O)c2[nH]cnc21` [IBMX, 3-isobutyl-1-methylxanthine] as the compound, how does the PDE4 selectivity (PDE4 [4]) read?
The PDE4 selectivity was “nonselective”.

For `CCOc1cc([C@@H](CS(C)(=O)=O)N2C(=O)c3cccc(NC(C)=O)c3C2=O)ccc1OC` [Apremilast], which PDE4 selectivity (PDE4 [4]) is on record?
The PDE4 selectivity was “Selective”.

What about the Brain penetration ([1]; PDE4 inhibitors, Table 1A) of the same compound?
Its Brain penetration is “None”.

For `CC(C)C(=O)c1c(C(C)C)nn2ccccc12` [Ibudilast], which Brain penetration ([1]; PDE4 inhibitors, Table 1A) is on record?
Its Brain penetration is “Yes”.

For `O=C(Nc1c(Cl)cncc1Cl)c1ccc(OC(F)F)c(OCC2CC2)c1` [Roflumilast], which “PCSK1 transcript levels, single agent” value (PCSK1 transcript; iPSC-derived neurons Day 40 (1043D3 line), 1 mM) is on record?
Its value is “increases”.

And the PDE4 selectivity (PDE4 [4])?
The PDE4 selectivity was “Selective”.

What about the Brain penetration ([1]; PDE4 inhibitors, Table 1A) of the same compound?
Its Brain penetration is “limited”.
